Values joined by “and” are separate entries in the source; they are usually repeats but may differ in a detail not shown here. Equal entries are not always repeated. Where two headings read alike, the source gives them in different places.
How the values were obtained:
THP-1 = experiment: 8-day growth inhibition; format: cell-based; settings: AML, THP-1, 8-day assay
HEC-1 = experiment: 8-day growth inhibition; format: cell-based; settings: Endometrial, HEC-1, 8-day assay
AN3 CA = experiment: 8-day growth inhibition; format: cell-based; settings: Endometrial, 8-day assay

O=c1[nH]nc2c3c(cccc13)N=C(CN1Cc3ccccc3C1)N2 [E7449]
IC50 (THP-1): 5400 nM
Abdominal pain, treatment-related AE (50 mg (n = 3)): 0%
Anaemia, treatment-related AE (50 mg (n = 3)): 33.3%
Chromaturia, treatment-related AE (50 mg (n = 3)): 0%
Constipation, treatment-related AE (50 mg (n = 3)): 33.3%
Decreased appetite, treatment-related AE (50 mg (n = 3)): 33.3%
Depression, treatment-related AE (50 mg (n = 3)): 0%
Diarrhoea, treatment-related AE (50 mg (n = 3)): 33.3%
Dizziness, treatment-related AE (50 mg (n = 3)): 0%
Dry skin, treatment-related AE (50 mg (n = 3)): 0%
Dysgeusia, treatment-related AE (50 mg (n = 3)): 0%
Erythematous rash, treatment-related AE (50 mg (n = 3)): 0%
Fatigue, treatment-related AE (50 mg (n = 3)): 33.3%
Increased blood alkaline phosphatase, treatment-related AE (50 mg (n = 3)): 0%
Maculopapular rash, treatment-related AE (50 mg (n = 3)): 0%
Nausea, treatment-related AE (50 mg (n = 3)): 33.3%
Onycholysis, treatment-related AE (50 mg (n = 3)): 0%
Periorbital oedema, treatment-related AE (50 mg (n = 3)): 0%
Photosensitivity reaction, treatment-related AE (50 mg (n = 3)): 33.3%
Pruritus, treatment-related AE (50 mg (n = 3)): 0%
Skin hyperpigmentation, treatment-related AE (50 mg (n = 3)): 0%
Vomiting, treatment-related AE (50 mg (n = 3)): 33.3%
Patients with dose-limiting toxicity, n (%) (50 mg cohort, 3 evaluable): 0 n (%)
Abdominal pain, treatment-related AE (100 mg (n = 3)): 33.3%
Anaemia, treatment-related AE (100 mg (n = 3)): 0%
Chromaturia, treatment-related AE (100 mg (n = 3)): 0%
Constipation, treatment-related AE (100 mg (n = 3)): 33.3%
Decreased appetite, treatment-related AE (100 mg (n = 3)): 0%
Depression, treatment-related AE (100 mg (n = 3)): 33.3%
Diarrhoea, treatment-related AE (100 mg (n = 3)): 33.3%
Dizziness, treatment-related AE (100 mg (n = 3)): 0%
Dry skin, treatment-related AE (100 mg (n = 3)): 33.3%
Dysgeusia, treatment-related AE (100 mg (n = 3)): 0%
Erythematous rash, treatment-related AE (100 mg (n = 3)): 0%
Fatigue, treatment-related AE (100 mg (n = 3)): 66.7%
Increased blood alkaline phosphatase, treatment-related AE (100 mg (n = 3)): 0%
Maculopapular rash, treatment-related AE (100 mg (n = 3)): 33.3%
Nausea, treatment-related AE (100 mg (n = 3)): 33.3%
Onycholysis, treatment-related AE (100 mg (n = 3)): 0%
Periorbital oedema, treatment-related AE (100 mg (n = 3)): 0%
Photosensitivity reaction, treatment-related AE (100 mg (n = 3)): 33.3%
Pruritus, treatment-related AE (100 mg (n = 3)): 33.3%
Skin hyperpigmentation, treatment-related AE (100 mg (n = 3)): 33.3%
Vomiting, treatment-related AE (100 mg (n = 3)): 0%
Patients with dose-limiting toxicity, n (%) (100 mg cohort, 3 evaluable): 0 n (%)
Abdominal pain, treatment-related AE (200 mg (n = 4)): 0%
Anaemia, treatment-related AE (200 mg (n = 4)): 0%
Chromaturia, treatment-related AE (200 mg (n = 4)): 0%
Constipation, treatment-related AE (200 mg (n = 4)): 0%
Decreased appetite, treatment-related AE (200 mg (n = 4)): 0%
Depression, treatment-related AE (200 mg (n = 4)): 25.0%
Diarrhoea, treatment-related AE (200 mg (n = 4)): 0%
Dizziness, treatment-related AE (200 mg (n = 4)): 0%
Dry skin, treatment-related AE (200 mg (n = 4)): 0%
Dysgeusia, treatment-related AE (200 mg (n = 4)): 0%
Erythematous rash, treatment-related AE (200 mg (n = 4)): 0%
Fatigue, treatment-related AE (200 mg (n = 4)): 0%
Increased blood alkaline phosphatase, treatment-related AE (200 mg (n = 4)): 0%
Maculopapular rash, treatment-related AE (200 mg (n = 4)): 25.0%
Nausea, treatment-related AE (200 mg (n = 4)): 50.0%
Onycholysis, treatment-related AE (200 mg (n = 4)): 0%
Periorbital oedema, treatment-related AE (200 mg (n = 4)): 0%
Photosensitivity reaction, treatment-related AE (200 mg (n = 4)): 0%
Pruritus, treatment-related AE (200 mg (n = 4)): 0%
Skin hyperpigmentation, treatment-related AE (200 mg (n = 4)): 0%
Vomiting, treatment-related AE (200 mg (n = 4)): 25.0%
Patients with dose-limiting toxicity, n (%) (200 mg cohort, 4 evaluable): 0 n (%)
Abdominal pain, treatment-related AE (400 mg (n = 4)): 25.0%
Anaemia, treatment-related AE (400 mg (n = 4)): 0%
Chromaturia, treatment-related AE (400 mg (n = 4)): 50.0%
Constipation, treatment-related AE (400 mg (n = 4)): 0%
Decreased appetite, treatment-related AE (400 mg (n = 4)): 25.0%
Depression, treatment-related AE (400 mg (n = 4)): 50.0%
Diarrhoea, treatment-related AE (400 mg (n = 4)): 50.0%
Dizziness, treatment-related AE (400 mg (n = 4)): 0%
Dry skin, treatment-related AE (400 mg (n = 4)): 0%
Dysgeusia, treatment-related AE (400 mg (n = 4)): 0%
Erythematous rash, treatment-related AE (400 mg (n = 4)): 0%
Fatigue, treatment-related AE (400 mg (n = 4)): 75.0%
Increased blood alkaline phosphatase, treatment-related AE (400 mg (n = 4)): 25.0%
Maculopapular rash, treatment-related AE (400 mg (n = 4)): 25.0%
Nausea, treatment-related AE (400 mg (n = 4)): 25.0%
Onycholysis, treatment-related AE (400 mg (n = 4)): 25.0%
Periorbital oedema, treatment-related AE (400 mg (n = 4)): 25.0%
Photosensitivity reaction, treatment-related AE (400 mg (n = 4)): 25.0%
Pruritus, treatment-related AE (400 mg (n = 4)): 0%
Skin hyperpigmentation, treatment-related AE (400 mg (n = 4)): 0%
Vomiting, treatment-related AE (400 mg (n = 4)): 0%
Patients with dose-limiting toxicity, n (%) (400 mg cohort, 3 evaluable): 0 n (%)
Abdominal pain, treatment-related AE (600 mg (n = 21)): 0%
Anaemia, treatment-related AE (600 mg (n = 21)): 9.5%
Chromaturia, treatment-related AE (600 mg (n = 21)): 66.7%
Constipation, treatment-related AE (600 mg (n = 21)): 9.5%
Decreased appetite, treatment-related AE (600 mg (n = 21)): 23.8%
Depression, treatment-related AE (600 mg (n = 21)): 4.8%
Diarrhoea, treatment-related AE (600 mg (n = 21)): 23.8%
Dizziness, treatment-related AE (600 mg (n = 21)): 4.8%
Dry skin, treatment-related AE (600 mg (n = 21)): 4.8%
Dysgeusia, treatment-related AE (600 mg (n = 21)): 14.3%
Erythematous rash, treatment-related AE (600 mg (n = 21)): 9.5%
Fatigue, treatment-related AE (600 mg (n = 21)): 66.7%
Increased blood alkaline phosphatase, treatment-related AE (600 mg (n = 21)): 14.3%
Maculopapular rash, treatment-related AE (600 mg (n = 21)): 33.3%
Nausea, treatment-related AE (600 mg (n = 21)): 33.3%
Onycholysis, treatment-related AE (600 mg (n = 21)): 9.5%
Periorbital oedema, treatment-related AE (600 mg (n = 21)): 19.0%
Photosensitivity reaction, treatment-related AE (600 mg (n = 21)): 23.8%
Pruritus, treatment-related AE (600 mg (n = 21)): 19.0%
Skin hyperpigmentation, treatment-related AE (600 mg (n = 21)): 9.5%
Vomiting, treatment-related AE (600 mg (n = 21)): 14.3%
Dose-limiting-toxicity description (600 mg cohort): Grade 3 anaphylactic reaction
Patients with dose-limiting toxicity, n (%) (600 mg cohort, 6 evaluable): 1 (16.7) n (%)
Treatment-related grade 3 fatigue, patients (600 mg n = 2, 800 mg n = 2): 4
Abdominal pain, treatment-related AE (800 mg (n = 6)): 16.7%
Anaemia, treatment-related AE (800 mg (n = 6)): 0%
Chromaturia, treatment-related AE (800 mg (n = 6)): 66.7%
Constipation, treatment-related AE (800 mg (n = 6)): 0%
Decreased appetite, treatment-related AE (800 mg (n = 6)): 50.0%
Depression, treatment-related AE (800 mg (n = 6)): 16.7%
Diarrhoea, treatment-related AE (800 mg (n = 6)): 50.0%
Dizziness, treatment-related AE (800 mg (n = 6)): 33.3%
Dry skin, treatment-related AE (800 mg (n = 6)): 33.3%
Dysgeusia, treatment-related AE (800 mg (n = 6)): 0%
Erythematous rash, treatment-related AE (800 mg (n = 6)): 16.7%
Fatigue, treatment-related AE (800 mg (n = 6)): 100.0%
Increased blood alkaline phosphatase, treatment-related AE (800 mg (n = 6)): 0%
Maculopapular rash, treatment-related AE (800 mg (n = 6)): 16.7%
Nausea, treatment-related AE (800 mg (n = 6)): 33.3%
Onycholysis, treatment-related AE (800 mg (n = 6)): 0%
Periorbital oedema, treatment-related AE (800 mg (n = 6)): 0%
Photosensitivity reaction, treatment-related AE (800 mg (n = 6)): 33.3%
Pruritus, treatment-related AE (800 mg (n = 6)): 0%
Skin hyperpigmentation, treatment-related AE (800 mg (n = 6)): 33.3%
Vomiting, treatment-related AE (800 mg (n = 6)): 33.3%
Dose-limiting-toxicity description (800 mg cohort): Grade 3 fatigue (n = 1) Grade 2 fatigue (n = 3)
Patients with dose-limiting toxicity, n (%) (800 mg cohort, 6 evaluable): 4 (66.7) n (%)
Treatment-emergent AEs associated with skin rash events, patients (17/41, doses ≥100 mg): 41.5%
Grade 4 AE (hypokalaemia, not treatment-related), patients (200-mg dose cohort): 1
Treatment-emergent chromaturia, patients (400-mg dose cohort): 50.0%
Treatment-emergent AEs associated with skin rash events, patients (600-mg dose cohort): 47.6%
Treatment-emergent chromaturia, patients (600-mg dose cohort): 66.7%
Treatment-emergent AEs associated with skin rash events, patients (800-mg dose cohort): 66.7%
Treatment-emergent chromaturia, patients (800-mg dose cohort): 83.3%
Abdominal pain, treatment-related AE (Total (N = 41)): 7.3%
Anaemia, treatment-related AE (Total (N = 41)): 7.3%
Chromaturia, treatment-related AE (Total (N = 41)): 49% and 48.8%
Constipation, treatment-related AE (Total (N = 41)): 9.8%
Decreased appetite, treatment-related AE (Total (N = 41)): 24% and 24.4%
Depression, treatment-related AE (Total (N = 41)): 14.6%
Diarrhoea, treatment-related AE (Total (N = 41)): 29% and 29.3%
Dizziness, treatment-related AE (Total (N = 41)): 7.3%
Dry skin, treatment-related AE (Total (N = 41)): 9.8%
Dysgeusia, treatment-related AE (Total (N = 41)): 7.3%
Erythematous rash, treatment-related AE (Total (N = 41)): 7.3%
Fatigue, treatment-related AE (Total (N = 41)): 63% and 63.4%
Increased blood alkaline phosphatase, treatment-related AE (Total (N = 41)): 9.8%
Maculopapular rash, treatment-related AE (Total (N = 41)): 27% and 26.8%
Nausea, treatment-related AE (Total (N = 41)): 34% and 34.1%
Onycholysis, treatment-related AE (Total (N = 41)): 7.3%
Periorbital oedema, treatment-related AE (Total (N = 41)): 12.2%
Photosensitivity reaction, treatment-related AE (Total (N = 41)): 24% and 24.4%
Pruritus, treatment-related AE (Total (N = 41)): 12.2%
Skin hyperpigmentation, treatment-related AE (Total (N = 41)): 12.2%
Vomiting, treatment-related AE (Total (N = 41)): 17.1%
Grade 5 AEs (all cohorts): No grade 5 AEs
Grade 3 fatigue, patients (all cohorts, 7/41): 17.1%
Treatment discontinued due to AEs, patients (all cohorts, 7/41): 17%
Treatment-emergent chromaturia, patients (all cohorts, 21/41): 51.2%
Nonfatal SAEs, patients (all cohorts, 24/41): 58.5%
Grade 3 AEs, patients (all cohorts, 27 of 41 patients): 65.9%
Patients with treatment-related AEs (all cohorts, 39 patients): 95.1%
Grade 1 thrombocytopenia, patients (at the MTD, 1/21): 5%
Anaemia (≤grade 2), patients (at the MTD, 4/21): 19%
Patients with DLTs (of the 25 evaluable patients, all dose cohorts): 5
Recommended phase 2 dose (oral, once daily): 600 mg
Maximum-tolerated dose (MTD) (oral, once daily, 28-day cycles): 600 mg
IC50 (HEC-1): 1280 nM
IC50 (AN3 CA): 1490 nM

— PMC7434893 (British Journal of Cancer, 2020)
